Data: patent publication US11052092B2, “N-{[2-(piperidin-1-yl)phenyl](phenyl)methyl}-2-(3-oxo-3,4-dihydro-2H-1,4-benzoxazin-7-yl)acetamide derivatives and related compounds as ROR-gamma modulators for treating autoimmune diseases” (Genfit, priority 2017, dated 2021)
Where a name gives a salt, the structure may show the parent alone.

Key:
[1] = molecular target: T1, human RORγt (Homo sapiens, UniProt P51449); assay: RORE Luciferase/RORγt transactivation assay; format: cell-based; conditions: COS-7 cells transfected with human IL-17 promoter luciferase reporter and RORγt plasmid; 20 h with compound; read-out: IC50, RORγt activity inhibition
T1 construct: the full-length cDNA of human RORγt; expressed in transfected cells; host or cells: COS-7 (monkey kidney)
T1 sequence (P51449 1-497 isoform P51449-2): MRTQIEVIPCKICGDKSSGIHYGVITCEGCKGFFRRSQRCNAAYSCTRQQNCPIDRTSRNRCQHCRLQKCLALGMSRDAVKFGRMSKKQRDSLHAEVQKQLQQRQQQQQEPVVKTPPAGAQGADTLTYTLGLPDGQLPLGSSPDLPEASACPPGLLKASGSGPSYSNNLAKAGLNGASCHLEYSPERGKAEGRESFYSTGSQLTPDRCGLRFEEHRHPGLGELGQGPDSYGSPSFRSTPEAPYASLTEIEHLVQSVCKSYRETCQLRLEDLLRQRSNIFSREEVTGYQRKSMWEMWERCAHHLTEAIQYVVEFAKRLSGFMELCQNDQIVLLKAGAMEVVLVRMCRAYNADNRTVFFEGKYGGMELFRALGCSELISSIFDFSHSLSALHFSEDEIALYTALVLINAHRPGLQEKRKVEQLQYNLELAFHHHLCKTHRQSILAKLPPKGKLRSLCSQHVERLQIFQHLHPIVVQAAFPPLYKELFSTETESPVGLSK
Protocol: It is well known that RORγ binds to a conserved non-coding sequence (CNS) enhancer element in the IL-17 promoter.
Culture medium was changed every 2 days.
The 4.3 Kb human IL-17 promoter containing the RORγ-specific CNS enhancer element was PCR amplified from human genomic DNA and cloned into a pGL3-TKLuc2Cp reporter plasmid.
The luciferase reporter plasmid and the RORγt overexpression plasmid were transfected into COS-7 cell line using 4 μLJetPEI™/μg of DNA. Briefly, 150 ng of DNA (ration ½ between RORE-Tk Luc2Cp and cDNA RORγt or the empty vector for the negative control) was served to transfect adherent COS-7 cells in a […] culture flask, in complete medium (see cos-7 cell line culture).
Cells were then detached (using trypsin) and washed by centrifugation at 300 g for 10 minutes. Cell pellet was resuspended in serum free/phenol red free DMEM and seeded in 384 well plates at a density of 10000 cells/well and then incubated for 4 h at 37° C.
Compounds were dissolved in 100% DMSO to obtain 10 mM stock solutions. For each compound, test concentrations were diluted in serum free/phenol red free DMEM using the Genesis Freedom 200™ (TECAN) and added to the cells to obtain a 0.3% DMSO final concentration (in a final volume of 40 μL per well).
The luciferase activity was then measured with 40 μL/well steady-Glo Luciferase assay system (Promega, Madison, Wis.) and after incubation at room temperature for 30 minutes. The luminescence was estimated using the Ultra384 reader (TECAN). Data were collected and analyzed using GraphPad Prism software (GraphPad Software V5.02, San Diego Calif. USA). IC50 in μM and Emax in % were reported for each compound.

Row | SMILES | melting point | IC50 [1]
1 | Cc1ccc(C(NC(=O)Cc2ccc3c(c2)CC(=O)N3C)c2ccc(C)o2)c(N2CCCCC2)c1 (centres unmarked) (as salt: HCl) [Cpd. 38, N-{[4-methyl-2-(piperidin-1-yl)phenyl](5-methylfuran-2-yl)methyl}-2-(1-methyl-2-oxo-2,3-dihydro-1H-indol-5-yl)acetamide] | 215 °C | 
2 | Cc1ccc(C(NC(=O)Cc2ccc3c(c2)C(C)(O)C(=O)N3C)c2ccc(C)o2)c(N2CCCCC2)c1 (centres unmarked) (as salt: HCl) [Cpd. 39, 2-(3-hydroxy-1,3-dimethyl-2-oxo-2,3-dihydro-1H-indol-5-yl)-N-{[4-methyl-2-(piperidin-1-yl)phenyl](5-methylfuran-2-yl)methyl}acetamide] | 103 °C | 
3 | Cc1ccc(C(NC(=O)Cc2ccc3c(c2)C(C)(C)C(=O)N3C)c2ccc(C)o2)c(N2CCCCC2)c1 (centres unmarked) (as salt: HCl) [Cpd. 40, N-{[4-methyl-2-(piperidin-1-yl)phenyl](5-methylfuran-2-yl)methyl}-2-(1,3,3-trimethyl-2-oxo-2,3-dihydro-1H-indol-5-yl)acetamide] | 75 °C | 
4 | Cc1ccc(C(NC(=O)Cc2ccc3c(c2)CN(S(C)(=O)=O)C3)c2ccc(C)o2)c(N2CCCCC2)c1 (centres unmarked) (as salt: HCl) [Cpd. 41, 2-(2-methanesulfonyl-2,3-dihydro-1H-isoindol-5-yl)-N-{[4-methyl-2-(piperidin-1-yl)phenyl](5-methylfuran-2-yl)methyl}acetamide] | 83 °C | 
5 | Cc1ccc(C(NC(=O)Cc2cccc3c2CN(S(C)(=O)=O)C3)c2ccc(C)o2)c(N2CCCCC2)c1 (centres unmarked) (as salt: HCl) [Cpd. 50, 2-(2-methanesulfonyl-2,3-dihydro-1H-isoindol-4-yl)-N-{[4-methyl-2-(piperidin-1-yl)phenyl](5-methylfuran-2-yl)methyl}acetamide] | 155 °C | 
6 | Cc1ccc(C(NC(=O)Cc2ccc3c(c2)CCC3=O)c2ccc(C)o2)c(N2CCCCC2)c1 (centres unmarked) (as salt: HCl) [Cpd. 51, N-{[4-methyl-2-(piperidin-1-yl)phenyl](5-methylfuran-2-yl)methyl}-2-(1-oxo-2,3-dihydro-1H-inden-5-yl)acetamide] | 74 °C | 
7 | Cc1ccc(C(NC(=O)Cc2cc(C)c3c(c2)CC(=O)N3)c2ccc(C)o2)c(N2CCCCC2)c1 (centres unmarked) (as salt: HCl) [Cpd. 54, N-{[4-methyl-2-(piperidin-1-yl)phenyl](5-methylfuran-2-yl)methyl}-2-(7-methyl-2-oxo-2,3-dihydro-1H-indol-5-yl)acetamide] | 237 °C | 
8 | CC(C)=C1C(=O)Nc2ccc(CC(=O)NC(c3ccc(C)o3)c3ccc(C)cc3N3CCCCC3)cc21 (centres unmarked) (as salt: HCl) [Cpd. 55, N-{[4-methyl-2-(piperidin-1-yl)phenyl](5-methylfuran-2-yl)methyl}-2-[2-oxo-3-(propan-2-ylidene)-2,3-dihydro-1H-indol-5-yl]acetamide] | 172 °C | 
9 | Cc1ccc(C(NC(=O)C2(c3ccc4c(c3)CN(S(C)(=O)=O)C4)CC2)c2ccc(Cl)o2)c(C)c1 (centres unmarked) (as salt: HCl) [Cpd. 56, N-[(5-chlorofuran-2-yl)(2,4-dimethylphenyl)methyl]-1-(2-methanesulfonyl-2,3-dihydro-1H-isoindol-5-yl)cyclopropane-1-carboxamide] | 68 °C | 
10 | Cc1ccc(C(NC(=O)Cc2ccc3[nH]cc(CCO)c3c2)c2ccc(C)o2)c(N2CCCCC2)c1 (centres unmarked) (as salt: HCl) [Cpd. 57, 2-[3-(2-hydroxyethyl)-1H-indol-5-yl]-N-{[4-methyl-2-(piperidin-1-yl)phenyl](5-methylfuran-2-yl)methyl}acetamide] | 80 °C | 
11 | Cc1ccc(C(NC(=O)Cc2ccc3[nH]cc(CO)c3c2)c2ccc(C)o2)c(N2CCCCC2)c1 (centres unmarked) (as salt: HCl) [Cpd. 58, 2-[3-(hydroxymethyl)-1H-indol-5-yl]-N-{[4-methyl-2-(piperidin-1-yl)phenyl](5-methylfuran-2-yl)methyl}acetamide] | 99 °C | 
12 | Cc1ccc(C(NC(=O)C2(c3ccc4c(c3)OCC(=O)N4)CC2)c2ccc(C)o2)c(C)c1 (centres unmarked) (as salt: HCl) [Cpd. 59, N-[(2,4-dimethylphenyl)(5-methylfuran-2-yl)methyl]-1-(3-oxo-3,4-dihydro-2H-1,4-benzoxazin-7-yl)cyclopropane-1-carboxamide] | 89 °C | 
13 | Cc1ccc(C(NC(=O)C2(c3ccc4c(c3)CC(=O)N4)CC2)c2ccc(C)o2)c(C)c1 (centres unmarked) (as salt: HCl) [Cpd. 61, N-[(2,4-dimethylphenyl)(5-methylfuran-2-yl)methyl]-1-(2-oxo-2,3-dihydro-1H-indol-5-yl)cyclopropane-1-carboxamide] | 85 °C | 
14 | Cc1ccc(C(NC(=O)C2(c3ccc4[nH]cc(CCO)c4c3)CC2)c2ccc(Cl)o2)c(C)c1 (centres unmarked) (as salt: HCl) [Cpd. 62, N-[(5-chlorofuran-2-yl)(2,4-dimethylphenyl)methyl]-1-[3-(2-hydroxyethyl)-1H-indol-5-yl]cyclopropane-1-carboxamide] | 70 °C | 
15 | Cc1ccc(C(NC(=O)C2(c3ccc4c(c3)CS(=O)(=O)N4CC3CCOCC3)CC2)c2ccc(C)o2)c(Br)c1 (centres unmarked) [Cpd. 163, N-[(2-bromo-4-methylphenyl)(5-methylfuran-2-yl)methyl]-1-[1-(oxan-4-ylmethyl)-2,2-dioxo-1,3-dihydro-2,1-benzothiazol-5-yl]cyclopropane-1-carboxamide] |  | 10 to 100 nM

Second part, the compound after the results:

Row | melting point | IC50 [1] | SMILES
16 |  | 100 to 1000 nM | Cc1ccc(C(NC(=O)C2(c3ccc4c(c3)OCO4)CC2)c2ccc(C)o2)c(N2CCCCC2)c1 (centres unmarked) [Cpd. 164, 1-(2H-1,3-benzodioxol-5-yl)-N-{[4-methyl-2-(piperidin-1-yl)phenyl](5-methylfuran-2-yl)methyl}cyclopropane-1-carboxamide]
17 |  | 10 to 100 nM | Cc1ccc(C(NC(=O)C2(c3ccc4c(c3)CCC4=NO)CC2)c2ccc(C)o2)c(C)c1 (centres unmarked) [Cpd. 165, N-[(2,4-dimethylphenyl)(5-methylfuran-2-yl)methyl]-1-[1-(hydroxyimino)-2,3-dihydro-1H-inden-5-yl]cyclopropane-1-carboxamide]
18 |  | 10 to 100 nM | Cc1ccc(C(NC(=O)Cc2ccc3c(c2)CS(=O)(=O)N3CC2CCOCC2)c2ccc(C)o2)c(C)c1 (centres unmarked) [Cpd. 166, N-[(2,4-dimethylphenyl)(5-methylfuran-2-yl)methyl]-2-[1-(oxan-4-ylmethyl)-2,2-dioxo-1,3-dihydro-2,1-benzothiazol-5-yl]acetamide]
19 |  | 10 to 100 nM | Cc1ccc(C(NC(=O)Cc2ccc3c(c2)CS(=O)(=O)N3CC2CCOCC2)c2ccc(C)o2)c(N2CCCCC2)c1 (centres unmarked) [Cpd. 167, N-{[4-methyl-2-(piperidin-1-yl)phenyl](5-methylfuran-2-yl)methyl}-2-[1-(oxan-4-ylmethyl)-2,2-dioxo-1,3-dihydro-2,1-benzothiazol-5-yl]acetamide]
20 |  | 100 to 1000 nM | Cc1ccc(C(NC(=O)C2(c3ccc4c(c3)OC(C)(C)OC4)CC2)c2ccc(C)o2)c(C)c1 (centres unmarked) [Cpd. 168, 1-(2,2-dimethyl-2,4-dihydro-1,3-benzodioxin-7-yl)-N-[(2,4-dimethylphenyl)(5-methylfuran-2-yl)methyl]cyclopropane-1-carboxamide]
21 |  | 100 to 1000 nM | Cc1ccc(C(NC(=O)C2(c3ccc4c(c3)COC(C)(C)O4)CC2)c2ccc(C)o2)c(C)c1 (centres unmarked) [Cpd. 169, 1-(2,2-dimethyl-2,4-dihydro-1,3-benzodioxin-6-yl)-N-[(2,4-dimethylphenyl)(5-methylfuran-2-yl)methyl]cyclopropane-1-carboxamide]
22 |  | 10 to 100 nM | Cc1ccc(C(NC(=O)C2(c3ccc4[nH]cc(C(C)(C)CO)c4c3)CC2)c2ccc(C)o2)c(C)c1 (centres unmarked) [Cpd. 170, N-[(2,4-dimethylphenyl)(5-methylfuran-2-yl)methyl]-1-[3-(1-hydroxy-2-methylpropan-2-yl)-1H-indol-5-yl]cyclopropane-1-carboxamide]
23 |  | 10 to 100 nM | Cc1ccc(C(NC(=O)C2(c3ccc4c(c3)OCS(=O)(=O)N4)CC2)c2ccc(C)o2)c(C(F)(F)F)c1 (centres unmarked) [Cpd. 171, 1-(2,2-dioxo-1,3-dihydro-4,2,1-benzoxathiazin-6-yl)-N-{[4-methyl-2-(trifluoromethyl)phenyl](5-methylfuran-2-yl)methyl}cyclopropane-1-carboxamide]
